The text below walks through data of PubChem BioAssay AID1259407 (Chemical Carcinogenesis Research Information System (CCRIS), 2018).

For this data set, the system named is CCRIS mutagenicity, Ames/micronucleus/aberration tests. Nature of the data set: CCRIS mutagenicity studies.
[1] abbreviates: Test System: AMES SALMONELLA TYPHIMURIUM, Strain/Indicator: TA100, Metabolic Activation: NONE, Method: STANDARD PLATE.
[2] abbreviates: Test System: AMES SALMONELLA TYPHIMURIUM, Strain/Indicator: TA98, Metabolic Activation: NONE, Method: STANDARD PLATE.
Where [3] appears, read: Test System: AMES SALMONELLA TYPHIMURIUM, Strain/Indicator: TA98, Metabolic Activation: RAT, LIVER, S-9, AROCLOR 1254, Method: STANDARD PLATE.
[4] abbreviates: Test System: AMES SALMONELLA TYPHIMURIUM, Strain/Indicator: TA100, Metabolic Activation: RAT, LIVER, S-9, AROCLOR 1254, Method: STANDARD PLATE.
[5] abbreviates: Test System: AMES SALMONELLA TYPHIMURIUM, Strain/Indicator: TA102, Metabolic Activation: NONE, Method: STANDARD PLATE.
Setting [6] is: Test System: AMES SALMONELLA TYPHIMURIUM, Strain/Indicator: TA102, Metabolic Activation: RAT, LIVER, S-9, AROCLOR 1254, Method: STANDARD PLATE.

Activity calls are given as the source filed them. The rule behind the calls is not given here.

As for `Nc1ccc(N=Nc2ccccc2)c(N)n1`, the mutagenic call runs as follows: (End Point: IN VITRO CHROMOSOMAL ABERRATIONS, Test System: CHINESE HAMSTER OVARY CELLS, Metabolic Activation: NONE) “active; positive (ploidy changes)”; (End Point: IN VITRO CHROMOSOMAL ABERRATIONS, Test System: CHINESE HAMSTER OVARY CELLS, Metabolic Activation: RAT, LIVER, S-9, AROCLOR 1254) “active; positive; authors reported that all doses were toxic, but were scored because of”; (Test System: MOUSE LYMPHOMA, Strain/Indicator: L5178Y (TK+/TK-), Metabolic Activation: NONE, Method: SUSPENSION/PLATE) “inactive; negative”; (Test System: MOUSE LYMPHOMA, Strain/Indicator: L5178Y (TK+/TK-), Metabolic Activation: RAT, LIVER, S-9, AROCLOR 1254, Method: SUSPENSION/PLATE) “active; positive”; (Test System: UDS RAT HEPATOCYTES, Strain/Indicator: BROMODEOXYURIDINE INCORP, Metabolic Activation: NONE, Method: FLOW CYTOMETRIC ANALYSIS) “active; positive”; (Test System: UDS RAT HEPATOCYTES, Strain/Indicator: THY INCORP, Metabolic Activation: NONE, Method: AUTORADIOGRAPHY) “active; positive”.
Take `Cc1ccccc1OP(=O)(Oc1ccccc1C)Oc1ccccc1C`: the mutagenic call was “inactive; negative” under setting [1] and “active; positive” (Test System: AMES SALMONELLA TYPHIMURIUM, Strain/Indicator: TA100, Metabolic Activation: RAT, LIVER, MICROSOMES, Method: STANDARD PLATE).
On to `OCCOc1ccccc1`, for which the mutagenic call (Test System: Ames Salmonella typhimurium, Strain/Indicator: TA98, Metabolic Activation: None, Method: Preincubation) was “inactive; negative”; the mutagenic call (Test System: Ames Salmonella typhimurium, Strain/Indicator: TA98, Metabolic Activation: Rat, Liver, S-9, Phenobarbital and 5,6-benzoflavone, Method: Preincubation) was “inactive; negative”; the mutagenic call (Test System: Ames Salmonella typhimurium, Strain/Indicator: TA100, Metabolic Activation: None, Method: Preincubation) was “inactive; negative”; the mutagenic call (Test System: Ames Salmonella typhimurium, Strain/Indicator: TA100, Metabolic Activation: Rat, Liver, S-9, Phenobarbital and 5,6-benzoflavone, Method: Preincubation) was “inactive; negative”; the mutagenic call (Test System: Ames Salmonella typhimurium, Strain/Indicator: TA1535, Metabolic Activation: None, Method: Preincubation) was “inactive; negative”; the mutagenic call (Test System: Ames Salmonella typhimurium, Strain/Indicator: TA1535, Metabolic Activation: Rat, Liver, S-9, Phenobarbital and 5,6-benzoflavone, Method: Preincubation) was “inactive; negative”. The mutagenic call (Test System: Ames Salmonella typhimurium, Strain/Indicator: TA1537, Metabolic Activation: None, Method: Preincubation) was “inactive; negative”; the mutagenic call (Test System: Ames Salmonella typhimurium, Strain/Indicator: TA1537, Metabolic Activation: Rat, Liver, S-9, Phenobarbital and 5,6-benzoflavone, Method: Preincubation) is “inactive; negative”; the mutagenic call (Test System: E. coli, Strain/Indicator: WP2uvrA/pKM101, Metabolic Activation: None, Method: Preincubation) was “inactive; negative”; the mutagenic call (Test System: E. coli, Strain/Indicator: WP2uvrA/pKM101, Metabolic Activation: Rat, Liver, S-9, Phenobarbital and 5,6-benzoflavone, Method: Preincubation) is “inactive; negative”.
As to `N[C@@H](CCC(=O)NNc1ccc(CO)cc1)C(=O)O`, the mutagenic call runs as follows: (Test System: AMES SALMONELLA TYPHIMURIUM, Strain/Indicator: TA97, Metabolic Activation: NONE) “active; positive”; (Test System: AMES SALMONELLA TYPHIMURIUM, Strain/Indicator: TA98, Metabolic Activation: NONE) “inactive; negative”; (Test System: AMES SALMONELLA TYPHIMURIUM, Strain/Indicator: TA100, Metabolic Activation: NONE) “inactive; negative”; (Test System: AMES SALMONELLA TYPHIMURIUM, Strain/Indicator: TA102, Metabolic Activation: NONE) “inactive; negative”; (Test System: AMES SALMONELLA TYPHIMURIUM, Strain/Indicator: TA104, Metabolic Activation: MUSHROOM TYROSINASE, Method: PREINCUBATION) “inactive; negative”; (Test System: AMES SALMONELLA TYPHIMURIUM, Strain/Indicator: TA104, Metabolic Activation: NONE) “active; positive”. Also, the mutagenic call reads like this: (Test System: AMES SALMONELLA TYPHIMURIUM, Strain/Indicator: TA104, Metabolic Activation: NONE, Method: PREINCUBATION) “inactive; negative”; (Test System: AMES SALMONELLA TYPHIMURIUM, Strain/Indicator: TA104, Metabolic Activation: RAT, KIDNEY, HOMOGENATE, REDUCED GLUTATHIONE, Method: PREINCUBATION) “active; positive”; (Test System: AMES SALMONELLA TYPHIMURIUM, Strain/Indicator: TA104, Metabolic Activation: RAT, KIDNEY, HOMOGENATE, Method: PREINCUBATION) “active; positive”; (Test System: AMES SALMONELLA TYPHIMURIUM, Strain/Indicator: TA104, Metabolic Activation: RAT, LIVER, CYTOSOL, AROCLOR 1254, NADPH, Method: PREINCUBATION) “active; positive”; (Test System: AMES SALMONELLA TYPHIMURIUM, Strain/Indicator: TA104, Metabolic Activation: RAT, LIVER, CYTOSOLIC FRACTION, AROCLOR 1254 (10%)) “active; positive”; (Test System: AMES SALMONELLA TYPHIMURIUM, Strain/Indicator: TA104, Metabolic Activation: RAT, LIVER, MICROSOMES, AROCLOR 1254, Method: PREINCUBATION) “inactive; negative”. The mutagenic call (Test System: AMES SALMONELLA TYPHIMURIUM, Strain/Indicator: TA104, Metabolic Activation: RAT, LIVER, MICROSOMES, AROCLOR 1254 AND RAT, KIDNEY, HOMOGENATE, Method: PREINCUBATION) is “active; positive”; the mutagenic call (Test System: AMES SALMONELLA TYPHIMURIUM, Strain/Indicator: TA1535, Metabolic Activation: NONE) is “inactive; negative”; the mutagenic call (Test System: AMES SALMONELLA TYPHIMURIUM, Strain/Indicator: TA1535, Metabolic Activation: NONE, Method: PREINCUBATION) was “inactive; negative”; the mutagenic call (Test System: AMES SALMONELLA TYPHIMURIUM, Strain/Indicator: TA1535, Metabolic Activation: RAT, LIVER, S-9, AROCLOR 1254, Method: PREINCUBATION) was “inactive; negative”; the mutagenic call (Test System: AMES SALMONELLA TYPHIMURIUM, Strain/Indicator: TA1537, Metabolic Activation: NONE) was “active; positive”; the mutagenic call (Test System: AMES SALMONELLA TYPHIMURIUM, Strain/Indicator: TA1537, Metabolic Activation: NONE, Method: PREINCUBATION) is “inactive; negative”. Moreover, the mutagenic call (Test System: AMES SALMONELLA TYPHIMURIUM, Strain/Indicator: TA1537, Metabolic Activation: RAT, LIVER, S-9, AROCLOR 1254, Method: PREINCUBATION) was “inactive; negative” and the mutagenic call (Test System: AMES SALMONELLA TYPHIMURIUM, Strain/Indicator: TA1538, Metabolic Activation: NONE) is “inactive; negative”.
As to `CN(C)C(=O)c1nc2n(n1)-c1ccc(Cl)cc1C(c1ccccc1Cl)=NC2`, the mutagenic call runs as follows: under setting [2], “inactive; negative”; under setting [3], “inactive; negative”; under setting [1], “inactive; negative”; under setting [4], “inactive; negative”; under setting [5], “inactive; negative”; under setting [6], “inactive; negative”. The mutagenic call is, setting by setting: (Test System: AMES SALMONELLA TYPHIMURIUM, Strain/Indicator: TA1535, Metabolic Activation: NONE, Method: STANDARD PLATE) “inactive; negative”; (Test System: AMES SALMONELLA TYPHIMURIUM, Strain/Indicator: TA1535, Metabolic Activation: RAT, LIVER, S-9, AROCLOR 1254, Method: STANDARD PLATE) “inactive; negative”; (Test System: AMES SALMONELLA TYPHIMURIUM, Strain/Indicator: TA1537, Metabolic Activation: NONE, Method: STANDARD PLATE) “inactive; negative”; (Test System: AMES SALMONELLA TYPHIMURIUM, Strain/Indicator: TA1537, Metabolic Activation: RAT, LIVER, S-9, AROCLOR 1254, Method: STANDARD PLATE) “inactive; negative”; (Test System: E. COLI, Strain/Indicator: WP2 UVRA, Metabolic Activation: NONE, Method: STANDARD PLATE) “inactive; negative”; (Test System: E. COLI, Strain/Indicator: WP2 UVRA, Metabolic Activation: RAT, LIVER, S-9, AROCLOR 1254, Method: STANDARD PLATE) “inactive; negative”.
Turning to `Cc1cc2nc3ccc(=[N+](C)C)cc-3sc2cc1N`, the mutagenic call was “active; positive” (Test System: AMES SALMONELLA TYPHIMURIUM, Strain/Indicator: TA97A, Metabolic Activation: NONE, Method: STANDARD PLATE); “active; positive” (Test System: AMES SALMONELLA TYPHIMURIUM, Strain/Indicator: TA97A, Metabolic Activation: RAT, LIVER, S-9, AROCLOR 1254, Method: STANDARD PLATE); “inactive; negative” under setting [2]; “active; positive” under setting [3]; “inactive; negative” under setting [1]; “active; positive” under setting [4]. Also, the mutagenic call was “inactive; negative” under setting [5] and “active; positive” under setting [6].
